Source: patent US10988445B2 (AstraZeneca AB, priority 2015, dated 2021)

Tested on: human TH17 cells
Experiment: Inhibition of IL-17 release from human TH17 cells
Assay type: cell-based
Conditions: isolated human TH17 cells, 4 days culture, IL-17A by HTRF; for IC50: Homo sapiens, 96 h, read-out: pIC50 IL-17 release (converted)
Text: Inhibition of IL-17 Release from Human TH17 Cells (IL-17 Release)
This test is designed to screen compounds for their inhibitory effect on the release of IL-17 from isolated and cultured human TH17 cells.
Peripheral blood mononuclear cells (PBMC) were isolated from heparin treated human whole blood fromhealthy donors by density gradient centrifugation. TH17 cells (CD4+CXCR3-CCR6+) were enriched using a human TH17 Cell Enrichment Kit (Stemcell Technologies) according to the manufacturer's protocol. […] On day 4 supernatants were collected and IL-17A was measured using a Human IL-17 HTRF Assay kit (Cisbio Bioassays) according to the manufacturer's protocol. […] Results

Row | Structure (SMILES) | IC50 [nM] | other results
1 | CC(C)(O)CC(=O)N1Cc2cc(S(C)(=O)=O)ccc2C1C(=O)Nc1ccc(C(O)(C(F)(F)F)C(F)(F)F)cc1 (centres unmarked) [Example 421, N-[4-(1,1,1,3,3,3-Hexafluoro-2-hydroxypropan-2-yl)phenyl]-2-(3-hydroxy-3-methylbutanoyl)-5-(methylsulfonyl)-2,3-dihydro-1H-isoindole-1-carboxamide] | 100 | 
2 | O=C(Nc1ccc(C(O)(C(F)(F)F)C(F)(F)F)cc1)C1c2ccc(S(=O)(=O)CC3(O)CC3)cc2CN1C(=O)CO (centres unmarked) [Example 1103, N-[4-(1,1,1,3,3,3-Hexafluoro-2-hydroxypropan-2-yl)phenyl]-2-(hydroxyacetyl)-5-{[(1-hydroxycyclopropyl)methyl]sulfonyl}-2,3-dihydro-1H-isoindole-1-carboxamide] | 501 | 
3 | CS(=O)(=O)c1ccc2c(c1)CN(C(=O)C1(C#N)CC1)C2C(=O)Nc1ccc(C(O)(C(F)(F)F)C(F)(F)F)c(F)c1 (centres unmarked) [Example 439, 2-[(1-Cyanocyclopropyl)carbonyl]-N-[3-fluoro-4-(1,1,1,3,3,3-hexafluoro-2-hydroxypropan-2-yl)phenyl]-5-(methylsulfonyl)-2,3-dihydro-1H-isoindole-1-carboxamide] | 25.1 | 
4 | CCOC1(C(=O)N2Cc3cc(S(C)(=O)=O)ccc3C2C(=O)Nc2ccc(C(O)(C(F)(F)F)C(F)(F)F)cc2)CC1 (centres unmarked) [Example 416, 2-[(1-Ethoxycyclopropyl)carbonyl]-N-[4-(1,1,1,3,3,3-hexafluoro-2-hydroxypropan-2-yl)phenyl]-5-(methylsulfonyl)-2,3-dihydro-1H-isoindole-1-carboxamide] | 31.6 | 
5 | CO[C@H](C)C(=O)N1Cc2cc(S(C)(=O)=O)ccc2C1C(=O)Nc1ccc(C(O)(C(F)(F)F)C(F)(F)F)cc1 (mixture of isomers) [Example 449, N-[4-(1,1,1,3,3,3-Hexafluoro-2-hydroxypropan-2-yl)phenyl]-2-[(2R)-2-methoxypropanoyl]-5-(methylsulfonyl)-2,3-dihydro-1H-isoindole-1-carboxamide] | 79.4 | 
6 | CC[C@H](O)C(=O)N1Cc2cc(S(=O)(=O)NC)ccc2C1C(=O)Nc1ccc(C(O)(C(F)(F)F)C(F)(F)F)cc1 (single isomer, unassigned) [Example 307, isomer 1, (R) or (S)N-[4-(1,1,1,3,3,3-Hexafluoro-2-hydroxypropan-2-yl)phenyl]-2-[(2S)-2-hydroxybutanoyl]-5-(methylsulfamoyl)-2,3-dihydro-1H-isoindole-1-carboxamide] |  | pIC50 IL-17 release (listed as 307, isomer 1): 7.5
7 | CC1(C(=O)N2Cc3cc(S(C)(=O)=O)ccc3C2C(=O)Nc2ccc(C(O)(C(F)(F)F)C(F)(F)F)cc2)CCO1 (racemic) [Example 445] | 25.1 | 
8 | CCS(=O)(=O)c1ccc2c(c1)CN(C(=O)CC(C)(C)O)C2C(=O)Nc1ccc(C(O)(C(F)(F)F)C(F)(F)F)cc1 (centres unmarked) [Example 106, 5-(Ethylsulfonyl)-N-[4-(1,1,1,3,3,3-hexafluoro-2-hydroxypropan-2-yl)phenyl]-2-(3-hydroxy-3-methylbutanoyl)-2,3-dihydro-1H-isoindole-1-carboxamide] | 63.1 | 
9 | O=C(Nc1ccc(C(O)(C(F)(F)F)C(F)(F)F)cc1)C1c2ccc(S(=O)(=O)C3CC3)cc2CN1C(=O)[C@H]1CCCO1 (stereo partly drawn) [Example 609, 5-(Cyclopropylsulfonyl)-N-[4-(1,1,1,3,3,3-hexafluoro-2-hydroxypropan-2-yl)phenyl]-2-[(2R)-tetrahydrofuran-2-ylcarbonyl]-2,3-dihydro-1H-isoindole-1-carboxamide] | 50.1 | 
10 | O=C(Nc1ccc(C(O)(C(F)(F)F)C(F)(F)F)cc1)C1c2ccc(S(=O)(=O)CC3CC3)cc2CN1C(=O)C1CCCO1 (centres unmarked) [Example 208, 5-[(Cyclopropylmethyl)sulfonyl]-N-[4-(1,1,1,3,3,3-hexafluoro-2-hydroxypropan-2-yl)phenyl]-2-(tetrahydrofuran-2-ylcarbonyl)-2,3-dihydro-1H-isoindole-1-carboxamide] | 20 | 
11 | CC(C)CC(=O)N1Cc2cc(S(C)(=O)=O)ccc2C1C(=O)Nc1ccc(C(O)(C(F)(F)F)C(F)(F)F)cc1 (centres unmarked) [Example 410, N-[4-(1,1,1,3,3,3-Hexafluoro-2-hydroxypropan-2-yl)phenyl]-2-(3-methylbutanoyl)-5-(methylsulfonyl)-2,3-dihydro-1H-isoindole-1-carboxamide] | 20 | 
12 | CS(=O)(=O)c1ccc2c(c1)CN(C(=O)CC1(C#N)CC1)C2C(=O)Nc1ccc(C(O)(C(F)(F)F)C(F)(F)F)cc1 (centres unmarked) [Example 427, 2-[(1-Cyanocyclopropyl)acetyl]-N-[4-(1,1,1,3,3,3-hexafluoro-2-hydroxypropan-2-yl)phenyl]-5-(methylsulfonyl)-2,3-dihydro-1H-isoindole-1-carboxamide] | 100 | 
13 | CNS(=O)(=O)c1ccc2c(c1)CN(C(=O)C1(OC)CC1)C2C(=O)Nc1ccc(C(O)(C(F)(F)F)C(F)(F)F)cc1 (centres unmarked) [Example 306, N-[4-(1,1,1,3,3,3-Hexafluoro-2-hydroxypropan-2-yl)phenyl]-2-[(1-methoxycyclopropyl)carbonyl]-5-(methylsulfamoyl)-2,3-dihydro-1H-isoindole-1-carboxamide] | 20 | 
14 | CS(=O)(=O)c1ccc2c(c1)CN(C(=O)CCF)C2C(=O)Nc1ccc(C(O)(C(F)(F)F)C(F)(F)F)cc1 (centres unmarked) [Example 415, 2-(3-Fluoropropanoyl)-N-[4-(1,1,1,3,3,3-hexafluoro-2-hydroxypropan-2-yl)phenyl]-5-(methylsulfonyl)-2,3-dihydro-1H-isoindole-1-carboxamide] | 31.6 | 
15 | CS(=O)(=O)c1ccc2c(c1)CN(C(=O)C1COC1)C2C(=O)Nc1ccc(C(O)(C(F)(F)F)C(F)(F)F)cc1 (centres unmarked) [Example 444, N-[4-(1,1,1,3,3,3-Hexafluoro-2-hydroxypropan-2-yl)phenyl]-5-(methylsulfonyl)-2-(oxetan-3-ylcarbonyl)-2,3-dihydro-1H-isoindole-1-carboxamide] | 63.1 | 
16 | CC(=O)N1Cc2cc(S(=O)(=O)CC(C)C)ccc2C1C(=O)Nc1ccc(C(O)(C(F)(F)F)C(F)(F)F)cc1 (centres unmarked) [Example 1001, 2-Acetyl-N-[4-(1,1,1,3,3,3-hexafluoro-2-hydroxypropan-2-yl)phenyl]-5-[(2-methylpropyl)sulfonyl]-2,3-dihydro-1H-isoindole-1-carboxamide] | 100 | 
17 | CC(C)[C@@H](O)C(=O)N1Cc2cc(S(C)(=O)=O)ccc2C1C(=O)Nc1ccc(C(O)(C(F)(F)F)C(F)(F)F)cc1 (single isomer, unassigned) [Example 422] | 39.8 | 
18 | CC[C@@H](O)C(=O)N1Cc2cc(S(=O)(=O)NC)ccc2C1C(=O)Nc1ccc(C(O)(C(F)(F)F)C(F)(F)F)cc1 (single isomer, unassigned) [Example 303, isomer 1] |  | pIC50 IL-17 release (listed as 303, isomer 1): 6.7
19 | CC(=O)N1Cc2cc(S(=O)(=O)CC(C)O)ccc2C1C(=O)Nc1ccc(C(O)(C(F)(F)F)C(F)(F)F)cc1 (centres unmarked) [Example 1200, 2-Acetyl-N-[4-(1,1,1,3,3,3-hexafluoro-2-hydroxypropan-2-yl)phenyl]-5-[(2-hydroxypropyl)sulfonyl]-2,3-dihydro-1H-isoindole-1-carboxamide] | 158 | 
20 | COCC(=O)N1Cc2cc(S(=O)(=O)C3CC3)ccc2C1C(=O)Nc1ccc(C(O)(C(F)(F)F)C(F)(F)F)cc1 (centres unmarked) [Example 606, 5-(Cyclopropylsulfonyl)-N-[4-(1,1,1,3,3,3-hexafluoro-2-hydroxypropan-2-yl)phenyl]-2-(methoxyacetyl)-2,3-dihydro-1H-isoindole-1-carboxamide] | 31.6 | 
21 | C[C@H](O)CC(=O)N1Cc2cc(S(C)(=O)=O)ccc2C1C(=O)Nc1ccc(C(O)(C(F)(F)F)C(F)(F)F)cc1 (stereo partly drawn) [Example 433, N-[4-(1,1,1,3,3,3-Hexafluoro-2-hydroxypropan-2-yl)phenyl]-2-[(3S)-3-hydroxybutanoyl]-5-(methylsulfonyl)-2,3-dihydro-1H-isoindole-1-carboxamide] | 79.4 | 
22 | CNS(=O)(=O)c1ccc2c(c1)CN(C(=O)CO)C2C(=O)Nc1ccc(C(O)(C(F)(F)F)C(F)(F)F)cc1 (centres unmarked) [Example 313, N-[4-(1,1,1,3,3,3-Hexafluoro-2-hydroxypropan-2-yl)phenyl]-2-(hydroxyacetyl)-5-(methylsulfamoyl)-2,3-dihydro-1H-isoindole-1-carboxamide] | 100 | 
23 | COC1(C(=O)N2Cc3cc(S(C)(=O)=O)ccc3C2C(=O)Nc2ccc(C(O)(C(F)(F)F)C(F)(F)F)cc2)CCCC1 (centres unmarked) [Example 434] | 25.1 | 
24 | CCS(=O)(=O)c1ccc2c(c1)CN(C(=O)C(F)(F)C1CC1)C2C(=O)Nc1ccc(C(O)(C(F)(F)F)C(F)(F)F)cc1 (centres unmarked) [Example 104, 2-[Cyclopropyl(difluoro)acetyl]-5-(ethylsulfonyl)-N-[4-(1,1,1,3,3,3-hexafluoro-2-hydroxypropan-2-yl)phenyl]-2,3-dihydro-1H-isoindole-1-carboxamide] | 20 | 
25 | CCOC(=O)N1Cc2cc(S(=O)(=O)NC)ccc2C1C(=O)Nc1ccc(C(O)(C(F)(F)F)C(F)(F)F)cc1 (centres unmarked) [Example 305, Ethyl 1-{[4-(1,1,1,3,3,3-hexafluoro-2-hydroxypropan-2-yl)phenyl]carbamoyl}-5-(methylsulfamoyl)-1,3-dihydro-2H-isoindole-2-carboxylate] | 10 | 
26 | COC1(CC(=O)N2Cc3cc(S(=O)(=O)CC4CC4)ccc3C2C(=O)Nc2ccc(C(O)(C(F)(F)F)C(F)(F)F)cc2)CC1 (centres unmarked) [Example 205, 5-[(Cyclopropylmethyl)sulfonyl]-N-[4-(1,1,1,3,3,3-hexafluoro-2-hydroxypropan-2-yl)phenyl]-2-[(1-methoxycyclopropyl)acetyl]-2,3-dihydro-1H-isoindole-1-carboxamide] | 15.8 | 
